In one test the test system is IL-8. Kind of test: LPS-induced IL-8 release from hPBMCs (ELISA). Type of test: cell-based. Particulars: Homo sapiens. How it is done: Cytokine production by lipopolysaccharides (LPS) in hPBMCs (human peripheral blood mononuclear cells) was measured as in reference, Physiol. Res. 2003, 52, 593-598, the disclosure of which is incorporated by reference for the teaching of the assay. Blood was collected from healthy donors into Potassium EDTA vacutainer tubes (BID vacutainer). The PBMC were isolated using gradient centrifugation in Histopaque-1077 solution (Sigma). Isolated PBMC were suspended in RPMI 1640 (Rosewell Park Memorial Institute) culture medium (Sigma-Aldrich Fine Chemicals, USA) containing 10% fetal bovine serum (FBS) (JRH, USA), 100 U/mL penicillin (Sigma Chemical Co. St Louis, Mo., USA) and 100 μg/mL streptomycin (Sigma Chemical Co. St Louis, Mo.). The cell concentration was adjusted to 1×10^6 cells/mL. The viability as determined by trypan blue dye exclusion was uniform Ly≧98%. The cell suspension (100 μL) was added to the wells of a 96-well culture plate. Following cell plating, 79 μL of the culture medium and 1 μL of various concentrations of test compounds (compounds of formula 1) (final concentration 0.001, 0.003, 0.005, 0.01, 0.025, 0.03, 0.05, 0.1, 0.25, 0.3 and 1 μM) dissolved in DMSO (dimethyl sulfoxide, Sigma, Mo., USA) were added to the cells. The final concentration of DMSO was adjusted to 0.5%. The vehicle (0.5% DMSO) was used as control. […]

The subject of test [1] is synovial fluid mononuclear cells (SFMC). Kind of test: Induction of apoptosis in synovial fluid mononuclear cells (Annexin-V/PI). Type of test: cell-based, human. The following applies: adherent and non-adherent SFMC from RA patients, 5 μM and 10 μM, 24 hours. How it is done:
The assay was designed as in reference, Arthritis and Rheumatism, Vol. 52, No. 1, January 2005, the disclosure of which is incorporated herein by reference for the teaching of the assay.
Synovial fluid was collected from rheumatoid arthritis patients under going knee aspiration. The fluid was collected in vacutainers and processed within 2 hours of collection. SFMC were isolated using gradient centrifugation using Ficoll-Hypaque solution (Sigma). Isolated SFMC were suspended in RPMI 1640 (Rosewell Park Memorial Institute) culture medium (Sigma-Aldrich Fine Chemicals, USA) containing 20% fetal bovine serum (FBS) (JRH, USA), 100 U/ml penicillin (Sigma Chemical Co. St Louis, Mo.) and 100 μg/mL streptomycin (Sigma Chemical Co. St Louis, Mo.). The cell concentration was adjusted to 1×10^6 cells/mL. The viability as determined by trypan blue dye exclusion was uniformly >98%. 4 mL of this cell suspension was added to each well of a 6-well plate. The SFMC were incubated for 3-4 hours. Non-adherent cells were removed and cultured separately in 6-well plates. Fresh medium was added to the adherent cells. After 24 hours incubation in a humidified atmosphere at 37° C. in 5% CO2, non-adherent cells were removed and pooled with previous days samples. These cells were plated at a density of 2×10^6 cells/well. The adherent cell population was re-fed fresh complete medium. […]

The next test concerns TNF-α. The test is described as follows: LPS-induced TNF-α release in Balb/c mice. Type of test: in vivo. The following applies: Mus musculus, plasma 1.5 hours post LPS (1 mg/kg i.p.). How it is done:
The assay was designed as in reference, J. Med. Bio. Res., 1997, 30, 1199-1207, the disclosure of which is incorporated herein by reference for the teaching of the assay. […] All suspensions were freshly prepared in 0.5% CMC. One hour later, LPS (1 mg/kg) (Escherchia coli, serotype 0127:B8, Sigma Chemical Co., St. Louis, Mo.) dissolved in sterile pyrogen-free saline was administered intra-peritoneally to the control group, standard treatment group (Rolipram, 30 mg/kg, p.o.) and test groups (compound of example 3), except the negative control group, which received normal saline. Blood samples were collected from anesthetized mice, with heparin as an anti-coagulant (25 IU per sample) 1.5 hours post LPS challenge. […] Percent inhibition of TNF-α release was calculated by comparing the TNF-α levels of the treatment groups with those of the control group.

This is an account of results in US8906953B2, “Pyrrolidine substitute flavones for the treatment of inflammatory disorders” (Piramal Enterprises Limited, priority 2010, dated 2014).

SMILES strings stand for the structures.

On to `CN1CC[C@@H](c2c(O)cc(O)c3c(=O)cc(-c4ccc(C(F)(F)F)cc4Cl)oc23)[C@@H]1CO.Cl` [Compound of example 3, (+)-trans-2-(2-Chloro-4-trifluoromethyl-phenyl)-5,7-dihydroxy-8-(2-hydroxymethyl-1-methyl-pyrrolidin-3-yl)-chromen-4-one hydrochloride], for which the IC50 with IL-8 was 1300 nM. The “Induction of apoptosis (Annexin-V/PI)” value in test [1] is given as “induces apoptosis”. The compound further gave an inhibition at 12.5 mg/kg in the test on TNF-α (12.5 mg/kg oral) of 53.2 ± 12.5%. Also, testing at 25 mg/kg with TNF-α (25 mg/kg oral) gave an inhibition of 66.8 ± 11.5%. The inhibition at 50 mg/kg in the test on TNF-α (50 mg/kg oral) was 82 ± 4.88%. For the same compound, the inhibition at 75 mg/kg in the test on TNF-α (75 mg/kg oral) is 77.3 ± 8.61%. The compound further had an inhibition at 100 mg/kg with TNF-α (100 mg/kg oral) of 92.6 ± 3.5%.
